85 molecules from a melting point compilation (Tetko et al.; mined from patent text by program, amines drawn as free bases though some values may be those of a salt) can be followed below.

As for `COc1ccc(C(=O)C=Cc2ccc(C#N)cc2)c(OC)c1OC`, the melting point (as a rule, the temperature of the solid-liquid transition) is 132 to 133 °C. For `O=C(c1cnoc1)N1CCCCC1`, the melting point lay in the range of 78 to 81 °C. In the case of `CN(C)C=C(C(=O)OC(C)(C)C)C(=O)c1ccccc1Cl` it was 97 to 99 °C; in that of `COC(=O)c1ccc(-c2nc(-c3ccc(C(F)(F)F)cc3)no2)c(NC(=O)C(F)(F)F)c1`, 188 to 189 °C. With `COc1cc(N2CCN(C)CC2)ccc1-c1cnn2c(N)c(-c3cccc(Cl)c3)c(C)nc12`, the melting point lay within 174 to 178 °C. Regarding `CC(C)(CCl)C(O)C(=Cc1ccc(Cl)cc1)n1cncn1` (stereo not given), the melting point was determined as 170 °C. For the molecule `CC(=O)N(C)c1c(I)c(NC(=O)CCCC(=O)O)c(I)c(C(=O)O)c1I`, the melting point lay in the range of 189 to 196 °C. In turn, `COC(=O)C1=C(N)NC(C)=C([N+](=O)[O-])C1c1ccccc1S(=O)(=O)CCCCN1CCN(c2ccccc2OC)CC1` (stereo not given) showed a melting point of 145 to 147 °C. For the molecule `CC1(CCC(=O)O)CCCc2c1[nH]c1ccccc21` (stereo not given), the melting point fell in the range of 204 to 206 °C. The molecule `Cc1cccc(NC(=O)Nc2nnc(C(F)(F)F)s2)c1` had a melting point of 255 to 257 °C. In turn, `CC(C)(C)OC(=O)NC[C@H]1CC[C@H](COS(C)(=O)=O)CC1` registered a melting point of 105 to 107 °C. On to `COC1(c2ccccc2)OC=C(c2ccc(CCC(=O)O)cc2)C1=O` (stereo not given), for which the melting point lay within 117 to 120 °C. Take `COC(=O)NN=Cc1ccnc2ccccc12`: the melting point was 83.5 °C. The molecule `COc1cccc(CN2CCc3cc(O)ccc3C2)c1OC` had a melting point of 111 to 115 °C.

Regarding `Brc1ccc2noc(-c3ccccc3)c2c1`, the melting point was 113 to 116 °C. Regarding `CCn1nc(-c2ccccc2)c(C(=O)OCC(=O)OCc2ccccc2)c(Nc2cnccc2C)c1=O`, the melting point was in the range of 115 to 116 °C.

In turn, `CC(=O)N1c2c(ccc3c2nc(C)n3C)[C@@H]2O[C@@H]2[C@H]1c1ccccc1` gave a melting point of 200 to 205 °C. With `CCOC(=O)c1cn(CC)c2nc3cc(Cl)c(F)cc3cc2c1=O` the figure was 300 to 301 °C; with `CCOCCn1c(NC2CCN(C(=O)c3ccccc3N)C(Cc3ccccc3)C2)nc2ccccc21` (stereo not given), 197 °C; with `NS(=O)(=O)c1ccc(NC(=O)NCCCCCCNC(=O)n2cc(F)c(=O)[nH]c2=O)cc1`, 181 to 184 °C. As to `CCOC(=O)c1c(-c2ccc(F)cc2)oc(-c2ccc(F)cc2)cc1=O`, the melting point was in the range of 113 to 114 °C.

For `N#Cc1c(N2CCc3ccccc3CC2)nc(CCOC2CCCCO2)[nH]c1=O` (stereo not given), the melting point lay within 185 to 187 °C. Turning to `C=CCn1c(CC)nc2nc3cc(Cl)ccc3nc21`, the melting point lay within 117 to 121 °C.

As for `Nc1cc(N)c(Cl)cc1Cl`, the melting point lay in the range of 138 to 141 °C. For the molecule `CCCCn1ncc(/C=C(\Cc2cc3c(cc2OC)CCO3)C(=O)O)c1-c1ccc(Cl)cc1OCc1ccccc1C(=O)O`, the melting point lay within 116 to 118 °C. `O=C(NC(=O)c1cc(F)c(Cl)nc1Cl)NC1CC1` yielded a melting point of 171 to 173 °C. In turn, `Cc1cccc(NC(=O)NC2N=C(C3CCCCC3)c3cccc(C)c3N(CC(=O)C3CCCCC3)C2=O)c1` (stereo not given) displayed a melting point of 159 to 170 °C.

As for `N#Cc1ccnc(Cl)c1Cl`, the melting point was in the range of 65 to 69 °C. Turning to `COc1ccc(N2CN(c3ccccc3)C(N)=C3C=NN=C32)cc1`, the melting point lay in the range of 204 to 206 °C. With `CC1(C)OCCc2c1[nH]c1ccccc21` the figure was 142 to 144 °C; with `COc1nc(OC)nc(SC(C(=O)O)C(C)(C)c2ccccc2)n1` (stereo not given), 115 to 118 °C.

`CON=C(c1ccccc1)c1ccc2c(c1)C(C)(C)CCN2CCOc1ccc(CC(Nc2ccccc2C(=O)c2ccccc2)C(=O)O)cc1` (stereo not given) yielded a melting point of 100 to 102 °C. `CCOC(=O)n1cc(C#N)c(-c2ccc(F)c(Cl)c2F)c1` had a melting point of 132 °C. Molecule `O=c1c2cc(O)ccc2[nH]c2c([N+](=O)[O-])ccc(Cl)c12` registered a melting point greater than 325 °C. Molecule `COc1ccc2c(=O)[nH]nc(-c3ccccc3)c2c1` had a melting point of 230 to 235 °C. In the case of `COc1c(N2CC(OC)C(C)(N)C2)c(F)cc2c(=O)c(C(=O)O)cn([C@@H]3C[C@@H]3F)c12` (stereo not given in full), the melting point is 150 to 151 °C. `CCOc1c2c(c([N+](=O)[O-])c(OCC)c1OCC)C(=O)OC2` returned a melting point of 82.5 to 84.5 °C. In the case of `O=C(c1ccc(F)cc1)c1ccc([N+](=O)[O-])cc1Cl`, the melting point was 83 to 84 °C. `CC1(C)CCC(C)(C)c2cc(NC(=O)c3ccc(C(=O)O)nc3)ccc21` returned a melting point of 200 to 201 °C. With `CC(NC(=O)c1cccc(C2(C)C(=O)Nc3cc(Cl)cc(Cl)c3C2=O)c1)c1ccccc1` (stereo not given), the melting point was 91 to 94 °C. `COC(=O)c1cc(-c2nc(COc3ccc(CCl)cc3OC)c(C)o2)ccc1OS(C)(=O)=O` came in with a melting point of 146 to 147 °C.

`O=c1c2cccc3ncc(c(=O)n1CCCCCNS(=O)(=O)C(F)(F)F)n32` had a melting point of 166 to 167 °C. On to `COc1cc(C(=O)NS(C)(=O)=O)cc(OC)c1-c1ccc(C[C@H](NC(=O)c2c(Cl)cccc2Cl)C(=O)O)cc1`, for which the melting point was in the range of 277 to 278 °C. Turning to `CCN1C(=O)C(=CC=C2C=C3c4ccccc4CCN3C3=C2CCCC3)C(=O)N(CC)C1=S`, the melting point was 320 °C. Molecule `CCOC(=O)c1nc(-c2ccc([N+](=O)[O-])cc2)[nH]c1-c1cccc(OC)c1` came in with a melting point of 194 to 196 °C. Molecule `O=C(Nc1ccccc1)NN1CCc2[nH]c(=O)n3nc(-c4ccccc4F)nc3c2C1` registered a melting point of 291 to 293 °C. Regarding `COC(=O)c1ccccc1S(=O)(=O)NC(=O)Nc1nc(C)c2ccccc2n1`, the melting point fell in the range of 182 to 183 °C. With `Cc1nc2cc(C)c(CN(C)c3ccc(C(=O)NC(CO)c4cccc([N+](=O)[O-])c4)cc3)cc2c(=O)[nH]1` (stereo not given) the figure was 231 to 240 °C; with `CCCc1c(O)c(C(C)=O)cc2c1N=C(C(=O)OC)CC2=O`, 169 to 170 °C; with `Cc1c(C#N)oc2c(c1=O)COc1ccccc1-2`, 179 to 181 °C. With `NC(=O)C(N)c1ccc(F)cc1F` (stereo not given), the melting point stood at 143 °C. Turning to `Cn1cc(C(=O)NCc2ccc(Cl)cc2)c(=O)c2cc(CN3CCOCC3)cc(C#Cc3ccncc3)c21`, the melting point was 200 to 202 °C. With `O=C(NCCOCc1ccc(C(=O)c2ccccc2)cc1)Nc1ccccc1` the figure was 129 to 132 °C.

Take `CCC1Oc2ccc(C(C)C(=O)O)cc2C(=O)C1C` (stereo not given): the melting point is 114 to 115 °C. The molecule `ClCCCOc1ccc(-c2nccs2)cc1` came in with a melting point of 72 to 75 °C. `C#CCCN1C(=O)c2cccc3cccc(c23)C1=O` showed a melting point of 191 to 193 °C. With `CCCNc1ccc(C(=O)N2CCCC(CC(=O)NC(C)C)c3ccccc32)c(Cl)c1` (stereo not given), the melting point was 140 to 143 °C. The molecule `Clc1nnc(Cc2ccc(OCc3ccccc3)cc2)c2ccccc12` came in with a melting point of 150 to 152 °C.

Molecule `CCC(CC)n1cnc2c(Oc3c(C)cc(C)cc3C)nc(C)cc21` returned a melting point of 127 to 131 °C. As to `Cc1c(C)c2c(c(C)c1OCc1ccccc1)C(c1ccc(C(C)C)cc1)C(C)(C)O2` (stereo not given), the melting point was in the range of 79 to 81 °C. With `Cc1ccc(S(=O)(=O)c2cn(S(=O)(=O)c3ccccc3)c3ccccc23)cc1` the figure was 189 to 190 °C. As to `O=C(O)Cc1ccc(OCCNC(=O)C2Cc3ccccc3N2S(=O)(=O)c2ccc(-c3cc(C(F)(F)F)ccc3Cl)cc2)c(F)c1` (stereo not given), the melting point stood at 100 °C. With `Brc1ccc(-c2ccc(-c3ccc(Br)cc3)o2)cc1` the figure was 198 to 199 °C; with `NCc1ccc(-c2nc(-c3ccccc3)c(-c3ccncc3)[nH]2)cc1`, 214 to 215 °C.

`COc1ccc(-c2cc(F)cc3c2NC(CN)CO3)c(C)c1` (stereo not given) had a melting point of 82 °C. `COC(=O)c1ccccc1S(=O)(=O)NC(=O)Nc1nc(OC)nc(C2CC2)n1` displayed a melting point of 166 to 168 °C. `FC(F)(F)Sc1cn(-c2c(Cl)cc(C(F)(F)F)cc2Cl)c(Cl)n1` registered a melting point of 112 °C. With `OCCNCCOc1ccc2cc3ccc(OCCNCCO)cc3nc2c1` the figure was 125 to 127 °C.

Molecule `Cn1ncc2c1C(=O)Nc1cccnc1N2` registered a melting point of 304 to 305 °C. `CC(C)(Cn1c(CO)nc2c(N)nc3ccccc3c21)CS(C)(=O)=O` gave a melting point of 230 to 232 °C. In the case of `Cc1ccc(C(=O)Cc2ccccc2)cc1` it was 107 to 111 °C. In the case of `CON(C)C(=O)Nc1c(C(=O)c2cccc(Cl)c2)[nH]c2cc(Cl)ccc12` it was 167 to 169 °C. With `COc1ccc2c(c1)c1c3c(c(-c4ccccc4Cl)cc1n2CCC(=O)NS(C)(=O)=O)C(=O)NC3=O` the figure was 293 to 295 °C; with `CN(CC(=O)N1CCN(Cc2ccc3c(c2)OCO3)CC1)c1ccc(Oc2ccc(NS(=O)(=O)c3ccc(Cl)c(Cl)c3)cn2)c(F)c1`, 186 to 187 °C; with `Cn1c(C(F)(F)F)cc(=O)n(-c2ncc(Cl)cc2F)c1=O`, 133 to 134 °C. On to `NC(c1ccco1)P(O)O` (stereo not given), for which the melting point is 221 °C.

On to `C#CCCOc1ccc(C=O)cc1OC`, for which the melting point fell in the range of 101 to 102 °C. As to `O=C(O)c1ccccc1C=Cc1ccc(-c2cc3ccc4ccccc4c3o2)cc1`, the melting point lay in the range of 210 to 211 °C. Turning to `CN(C)CCC=C1c2ccccc2CCc2ccc(S(C)(=O)=O)cc21`, the melting point fell in the range of 109 to 110 °C.

Consider `OC(COc1ccc(-c2cc[nH]n2)cc1)CN1CCN(c2ccc(Cl)cc2)CC1` (stereo not given), for which the melting point was in the range of 211 to 212 °C. In the case of `Cc1cccc(C(=O)NC(Nc2c(Nc3cccnc3)c(=O)c2=O)C(C)(C)Cc2ccccc2)c1` (stereo not given) it was 234 to 235 °C; in that of `N#Cc1ccc(Cn2cncc2CCNC(=O)[C@H]2CN(Cc3ccccc3)CCN2C(=O)CC2CCN(C(N)=O)CC2)cc1`, 118 °C. `CCCCC(=O)Nc1nc2ccc(Cl)cc2nc1NC(=O)CCCC` yielded a melting point of 171 to 173 °C. In turn, `CCOC(=O)c1cc(C)nc(NN=C(C)C)c1` displayed a melting point of 79 to 82 °C.

Molecule `Cc1ccc(-n2c(-c3cc(C)ccc3C=Cc3ccccc3)ccc2-c2cc(C)ccc2C=Cc2ccccc2)cc1` came in with a melting point of 314 to 316 °C.
